# Results published in PubChem BioAssay (NCI).
#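 Cells were grown in 96-well plates and exposed to each compound for 48 hours at five concentrations; endpoints were interpolated linearly between bracketing concentrations, or set to the highest concentration if not reached. The concentration for full growth arrest is given as TGI.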
# Columns and labels:
# Experiment in all cases: inhibition of tumour cell growth, NCI panel, 48 h
# NCI-H522 lung = system: NCI-H522 lung
# MOLT-4 leukemia = system: MOLT-4 leukemia
# T-47D breast = system: T-47D breast
# DMS 273 small cell lung = system: DMS 273 small cell lung
# SF-268 CNS = system: SF-268 CNS
# UACC-257 melanoma = system: UACC-257 melanoma
# SK-MEL-28 melanoma = system: SK-MEL-28 melanoma
# SK-OV-3 ovarian = system: SK-OV-3 ovarian
# HCT-116 colon = system: HCT-116 colon
# DU-145 prostate = system: DU-145 prostate
# SN12C renal = system: SN12C renal
# MDA-MB-435 = system: MDA-MB-435
# DLD-1 colon = system: DLD-1 colon
# OVCAR-8 ovarian = system: OVCAR-8 ovarian
# OVCAR-4 ovarian = system: OVCAR-4 ovarian
# M19-MEL melanoma = system: M19-MEL melanoma
# SF-295 CNS = system: SF-295 CNS
# HOP-62 NSCLC = system: HOP-62 NSCLC
# SF-539 CNS = system: SF-539 CNS
# IGROV1 ovarian = system: IGROV1 ovarian
# HL-60(TB) leukemia = system: HL-60(TB) leukemia
# TK-10 renal = system: TK-10 renal
# COLO 205 colon = system: COLO 205 colon
# MCF7 breast = system: MCF7 breast
# LXFL 529 NSCLC = system: LXFL 529 NSCLC
# HS 578T breast = system: HS 578T breast
# U251 CNS = system: U251 CNS
# LOX IMVI melanoma = system: LOX IMVI melanoma
# SNB-19 CNS = system: SNB-19 CNS
# UACC-62 melanoma = system: UACC-62 melanoma
# CAKI-1 renal = system: CAKI-1 renal
# HCT-15 colon = system: HCT-15 colon
# RPMI-8226 leukemia = system: RPMI-8226 leukemia
# HT29 colon = system: HT29 colon
# SK-MEL-2 melanoma = system: SK-MEL-2 melanoma
# NCI-H23 lung = system: NCI-H23 lung
# M14 melanoma = system: M14 melanoma
# MDA-N = system: MDA-N
# HOP-18 NSCLC = system: HOP-18 NSCLC
# A498 renal = system: A498 renal
# SNB-78 CNS = system: SNB-78 CNS
# SK-MEL-5 melanoma = system: SK-MEL-5 melanoma
# KM20L2 colon = system: KM20L2 colon
# KM12 colon = system: KM12 colon
# MALME-3M melanoma = system: MALME-3M melanoma
# UO-31 renal = system: UO-31 renal
# SR leukemia = system: SR leukemia
# A549 NSCLC = system: A549 NSCLC
# DMS 114 small cell lung = system: DMS 114 small cell lung
# XF 498 CNS = system: XF 498 CNS
# OVCAR-5 ovarian = system: OVCAR-5 ovarian
# HOP-92 NSCLC = system: HOP-92 NSCLC
# K-562 leukemia = system: K-562 leukemia
# NCI/ADR-RES ovarian = system: NCI/ADR-RES ovarian
# PC-3 prostate = system: PC-3 prostate
# NCI-H460 lung = system: NCI-H460 lung
# ACHN renal = system: ACHN renal
# 786-0 renal = system: 786-0 renal
# EKVX NSCLC = system: EKVX NSCLC
# CCRF-CEM leukemia = system: CCRF-CEM leukemia
# OVCAR-3 ovarian = system: OVCAR-3 ovarian
# NCI-H226 lung = system: NCI-H226 lung
# MDA-MB-231 breast = system: MDA-MB-231 breast
# SW-620 colon = system: SW-620 colon
# BT-549 breast = system: BT-549 breast
# RXF 393 renal = system: RXF 393 renal
# RXF-631 renal = system: RXF-631 renal
# HCC-2998 colon = system: HCC-2998 colon
compound,measurement,setting,value
O=C(CSc1ncnc2nc[nH]c12)c1ccccc1,TGI,NCI-H522 lung,> 100 µM
same,TGI,MOLT-4 leukemia,> 100 µM
same,TGI,T-47D breast,> 100 µM
same,TGI,DMS 273 small cell lung,> 100 µM
same,TGI,SF-268 CNS,> 100 µM
same,TGI,UACC-257 melanoma,> 100 µM
same,TGI,SK-MEL-28 melanoma,> 100 µM
same,TGI,SK-OV-3 ovarian,> 100 µM
same,TGI,HCT-116 colon,> 100 µM
same,TGI,DU-145 prostate,> 100 µM
same,TGI,SN12C renal,> 100 µM
same,TGI,MDA-MB-435,> 100 µM
same,TGI,DLD-1 colon,> 100 µM
same,TGI,OVCAR-8 ovarian,> 100 µM
same,TGI,OVCAR-4 ovarian,> 100 µM
same,TGI,M19-MEL melanoma,> 100 µM
same,TGI,SF-295 CNS,> 100 µM
same,TGI,HOP-62 NSCLC,> 100 µM
same,TGI,SF-539 CNS,> 100 µM
same,TGI,IGROV1 ovarian,> 100 µM
same,TGI,HL-60(TB) leukemia,> 100 µM
same,TGI,TK-10 renal,> 100 µM
same,TGI,COLO 205 colon,> 100 µM
same,TGI,MCF7 breast,> 100 µM
same,TGI,LXFL 529 NSCLC,> 100 µM
same,TGI,HS 578T breast,> 100 µM
same,TGI,U251 CNS,> 100 µM
same,TGI,LOX IMVI melanoma,> 100 µM
same,TGI,SNB-19 CNS,> 100 µM
same,TGI,UACC-62 melanoma,> 100 µM
same,TGI,CAKI-1 renal,> 100 µM
same,TGI,HCT-15 colon,> 100 µM
same,TGI,RPMI-8226 leukemia,> 100 µM
same,TGI,HT29 colon,> 100 µM
same,TGI,SK-MEL-2 melanoma,> 57.8 µM
same,TGI,NCI-H23 lung,> 100 µM
same,TGI,M14 melanoma,> 100 µM
same,TGI,MDA-N,> 100 µM
same,TGI,HOP-18 NSCLC,> 100 µM
same,TGI,A498 renal,> 100 µM
same,TGI,SNB-78 CNS,> 100 µM
same,TGI,SK-MEL-5 melanoma,> 100 µM
same,TGI,KM20L2 colon,> 100 µM
same,TGI,KM12 colon,> 57.1 µM
same,TGI,MALME-3M melanoma,> 100 µM
same,TGI,UO-31 renal,> 100 µM
same,TGI,SR leukemia,> 100 µM
same,TGI,A549 NSCLC,> 100 µM
same,TGI,DMS 114 small cell lung,> 100 µM
same,TGI,XF 498 CNS,> 100 µM
same,TGI,OVCAR-5 ovarian,> 100 µM
same,TGI,HOP-92 NSCLC,> 100 µM
same,TGI,K-562 leukemia,> 100 µM
same,TGI,NCI/ADR-RES ovarian,> 100 µM
same,TGI,PC-3 prostate,> 100 µM
same,TGI,NCI-H460 lung,> 100 µM
same,TGI,ACHN renal,> 100 µM
same,TGI,786-0 renal,> 100 µM
same,TGI,EKVX NSCLC,> 100 µM
same,TGI,CCRF-CEM leukemia,> 100 µM
same,TGI,OVCAR-3 ovarian,> 100 µM
same,TGI,NCI-H226 lung,> 100 µM
same,TGI,MDA-MB-231 breast,> 100 µM
same,TGI,SW-620 colon,> 100 µM
same,TGI,BT-549 breast,> 100 µM
same,TGI,RXF 393 renal,> 100 µM
N#CCC(=O)N1CCCOCCC1,TGI,MOLT-4 leukemia,7.36 µM
same,TGI,DMS 273 small cell lung,> 100 µM
same,TGI,SF-268 CNS,> 100 µM
same,TGI,UACC-257 melanoma,> 100 µM
same,TGI,SK-MEL-28 melanoma,> 100 µM
same,TGI,SK-OV-3 ovarian,> 100 µM
same,TGI,HCT-116 colon,> 100 µM
same,TGI,SN12C renal,> 100 µM
same,TGI,DLD-1 colon,> 100 µM
same,TGI,OVCAR-4 ovarian,> 100 µM
same,TGI,M19-MEL melanoma,> 100 µM
same,TGI,SF-295 CNS,> 100 µM
same,TGI,HOP-62 NSCLC,> 100 µM
same,TGI,SF-539 CNS,> 100 µM
same,TGI,IGROV1 ovarian,> 100 µM
same,TGI,HL-60(TB) leukemia,> 100 µM
same,TGI,TK-10 renal,> 100 µM
same,TGI,COLO 205 colon,42.2 µM
same,TGI,LXFL 529 NSCLC,> 100 µM
same,TGI,RXF-631 renal,> 100 µM
same,TGI,HCC-2998 colon,> 100 µM
same,TGI,U251 CNS,> 100 µM
same,TGI,LOX IMVI melanoma,> 100 µM
same,TGI,SNB-19 CNS,> 100 µM
same,TGI,UACC-62 melanoma,> 100 µM
same,TGI,CAKI-1 renal,> 100 µM
same,TGI,HCT-15 colon,37.7 µM
same,TGI,HT29 colon,> 100 µM
same,TGI,SK-MEL-2 melanoma,> 100 µM
same,TGI,NCI-H23 lung,> 100 µM
same,TGI,M14 melanoma,> 100 µM
same,TGI,A498 renal,> 100 µM
same,TGI,SNB-78 CNS,> 100 µM
same,TGI,SK-MEL-5 melanoma,> 100 µM
same,TGI,KM20L2 colon,> 100 µM
same,TGI,KM12 colon,> 100 µM
same,TGI,MALME-3M melanoma,> 100 µM
same,TGI,UO-31 renal,> 100 µM
same,TGI,A549 NSCLC,> 100 µM
same,TGI,DMS 114 small cell lung,> 100 µM
same,TGI,OVCAR-5 ovarian,> 100 µM
same,TGI,K-562 leukemia,> 100 µM
same,TGI,NCI-H460 lung,> 100 µM
same,TGI,ACHN renal,> 100 µM
same,TGI,786-0 renal,> 100 µM
same,TGI,EKVX NSCLC,> 100 µM
same,TGI,CCRF-CEM leukemia,> 100 µM
same,TGI,SW-620 colon,24.3 µM
same,TGI,RXF 393 renal,> 100 µM
